# Data as given in patent publication US6355799B1, “Substituted benzene compounds, process for their preparation, and herbicidal and defoliant compositions containing them” (ISK Americas Incorporated, priority 1997, dated 2002).
# Key:
# Assay type in all cases: in vivo
# [1] = tested on: redroot pigweed (Amaranthus retroflexus, AMARE); test: Pre-emerge test, greenhouse herbicide activity screening; settings: phytotoxicity rating 0-100, 14 days after application
# Procedure, shortened: (§1)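 Sandy loam pots; pre-emerge: sown 1 d pre-spray, surface-watered after, then bottom-watered. Post-emerge: sown 8–21 d before, 2–3 leaf stage, + 0.25% v/v NIS, bottom-watered. Acetone, 187 l/ha track spray, 15–1000 g ai/ha. 0–100 injury score, day 14.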
# [2] = tested on: barnyardgrass (Echinochloa crus-galli, ECHCG); test: as above; settings: phytotoxicity rating 0-100, 14 days after application
# Procedure, shortened: as §1
# [3] = tested on: green foxtail (Setaria viridis, SETVI); test: as above; settings: phytotoxicity rating 0-100, 14 days after application
# Procedure, shortened: as §1
# [4] = tested on: ivyleaf morningglory (Ipomoea hederacea, IPOHE); test: as above; settings: phytotoxicity rating 0-100, 14 days after application
# Procedure, shortened: as §1
# [5] = tested on: johnsongrass (Sorghum halepense, SORHA); test: as above; settings: phytotoxicity rating 0-100, 14 days after application
# Procedure, shortened: as §1
# [6] = tested on: lambsquarters (Chenopodium album, CHEAL); test: as above; settings: phytotoxicity rating 0-100, 14 days after application
# Procedure, shortened: as §1
# [7] = tested on: large crabgrass (Digitaria sanguinalis, DIGSA); test: as above; settings: phytotoxicity rating 0-100, 14 days after application
# Procedure, shortened: as §1
# [8] = tested on: sicklepod (Cassia obtusifolia, CASOB); test: as above; settings: phytotoxicity rating 0-100, 14 days after application
# Procedure, shortened: as §1
# [9] = tested on: velvetleaf (Abutilon theophrasti, ABUTH); test: as above; settings: phytotoxicity rating 0-100, 14 days after application
# Procedure, shortened: as §1
# [10] = tested on: field corn (Zea mays L., var. Dekalb 535, CORN); test: Pre-emerge test, crop safety; settings: crop damage rating 0-100, 14 days after application
# Procedure, shortened: (§2)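 Applied at 15–1000 g ai/ha from acetone in 187 l/ha spray volume. Post-emergence applications included 0.25% v/v non-ionic surfactant and reached plants sown 8–21 days before. Pre-emergence applications were incorporated by surface watering. Efficacy or crop damage was rated on a 0–100 scale after 14 days.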
# [11] = tested on: upland rice (Oryza sp., var. Tebonnet, RICE); test: Pre-emerge test, crop safety; settings: crop damage rating 0-100, 14 days after application
# Procedure, shortened: as §2
# [12] = tested on: barnyardgrass (Echinochloa crus-galli, ECHCG); test: Post-emerge test, greenhouse herbicide activity screening; settings: post-emerge, 14 days after application, rating scale 0-100
# Procedure, shortened: (§3)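 Compounds in acetone were track-sprayed at 15-1000 g ai/ha (187 l/ha) on sandy loam pots: pre-emerge one day after seeding, post-emerge at 2-3 leaf stage with 0.25% v/v non-ionic surfactant. Phytotoxicity was rated 14 days later on a 0 (no damage) to 100 (complete death) scale.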
# [13] = tested on: green foxtail (Setaria viridis, SETVI); test: as above; settings: post-emerge, 14 days after application, rating scale 0-100
# Procedure, shortened: as §3
# [14] = tested on: ivyleaf morningglory (Ipomoea hederacea, IPOHE); test: as above; settings: post-emerge, 14 days after application, rating scale 0-100
# Procedure, shortened: as §3
# [15] = tested on: johnsongrass (Sorghum halepense, SORHA); test: as above; settings: post-emerge, 14 days after application, rating scale 0-100
# Procedure, shortened: as §3
# [16] = tested on: lambsquarters (Chenopodium album, CHEAL); test: as above; settings: post-emerge, 14 days after application, rating scale 0-100
# Procedure, shortened: as §3
# [17] = tested on: large crabgrass (Digitaria sanguinalis, DIGSA); test: as above; settings: post-emerge, 14 days after application, rating scale 0-100
# Procedure, shortened: as §3
# [18] = tested on: redroot pigweed (Amaranthus retroflexus, AMARE); test: as above; settings: post-emerge, 14 days after application
# Procedure, shortened: as §3
# [19] = tested on: sicklepod (Cassia obtusifolia, CASOB); test: as above; settings: post-emerge, 14 days after application, rating scale 0-100
# Procedure, shortened: as §3
# [20] = tested on: velvetleaf (Abutilon theophrasti, ABUTH); test: as above; settings: post-emerge, 14 days after application, rating scale 0-100
# Procedure, shortened: as §3
# [21] = tested on: field corn (Zea mays L., var. Dekalb 535, CORN); test: Post-emerge test, crop safety; settings: post-emerge, 14 days after application, rating scale 0-100
# Procedure, shortened: as §1
# [22] = tested on: upland rice (Oryza sp., var. Tebonnet, RICE); test: Post-emerge test, crop safety; settings: post-emerge, 14 days after application, rating scale 0-100
# Procedure, shortened: as §1
smiles,measurement,setting,value
COc1c(Cl)cc(F)c(-n2c(=O)cc(C(F)(F)F)n(C)c2=O)c1NC(=O)OCc1ccccc1C(F)(F)F [4-33],Pre-emerge Herbicidal Activity AMARE,[1]; 63 g ai/ha,100
same,Pre-emerge Herbicidal Activity AMARE,[1]; 250 g ai/ha,100
same,Pre-emerge Herbicidal Activity ECHCG,[2]; 63 g ai/ha,20
same,Pre-emerge Herbicidal Activity ECHCG,[2]; 250 g ai/ha,80
same,Pre-emerge Herbicidal Activity SETVI,[3]; 63 g ai/ha,100
same,Pre-emerge Herbicidal Activity SETVI,[3]; 250 g ai/ha,100
same,Pre-emerge Herbicidal Activity IPOHE,[4]; 63 g ai/ha,0
same,Pre-emerge Herbicidal Activity IPOHE,[4]; 250 g ai/ha,70
same,Pre-emerge Herbicidal Activity SORHA,[5]; 63 g ai/ha,30
same,Pre-emerge Herbicidal Activity SORHA,[5]; 250 g ai/ha,80
same,Pre-emerge Herbicidal Activity CHEAL,[6]; 63 g ai/ha,100
same,Pre-emerge Herbicidal Activity CHEAL,[6]; 250 g ai/ha,100
same,Pre-emerge Herbicidal Activity DIGSA,[7]; 63 g ai/ha,45
same,Pre-emerge Herbicidal Activity DIGSA,[7]; 250 g ai/ha,90
same,Pre-emerge Herbicidal Activity CASOB,[8]; 63 g ai/ha,0
same,Pre-emerge Herbicidal Activity CASOB,[8]; 250 g ai/ha,50
same,Pre-emerge Herbicidal Activity ABUTH,[9]; 63 g ai/ha,50
same,Pre-emerge Herbicidal Activity ABUTH,[9]; 250 g ai/ha,100
same,Pre-emerge Herbicidal Activity CORN,[10]; 63 g ai/ha,10
same,Pre-emerge Herbicidal Activity CORN,[10]; 250 g ai/ha,50
same,Pre-emerge Herbicidal Activity RICE,[11]; 63 g ai/ha,20
same,Pre-emerge Herbicidal Activity RICE,[11]; 250 g ai/ha,40
same,phytotoxicity rating ECHCG,[12]; 63 g ai/ha,10
same,phytotoxicity rating ECHCG,[12]; 250 g ai/ha,20
same,phytotoxicity rating SETVI,[13]; 63 g ai/ha,30
same,phytotoxicity rating SETVI,[13]; 250 g ai/ha,40
same,phytotoxicity rating IPOHE,[14]; 63 g ai/ha,100
same,phytotoxicity rating IPOHE,[14]; 250 g ai/ha,100
same,phytotoxicity rating SORHA,[15]; 63 g ai/ha,0
same,phytotoxicity rating SORHA,[15]; 250 g ai/ha,30
same,phytotoxicity rating CHEAL,[16]; 63 g ai/ha,90
same,phytotoxicity rating CHEAL,[16]; 250 g ai/ha,100
same,phytotoxicity rating DIGSA,[17]; 63 g ai/ha,10
same,phytotoxicity rating DIGSA,[17]; 250 g ai/ha,30
same,phytotoxicity rating AMARE,"[18]; 63 g ai/ha, rating scale 0-100 (0 no damage, 100 complete death)",100
same,phytotoxicity rating AMARE,"[18]; 250 g ai/ha, rating scale 0-100",100
same,phytotoxicity rating CASOB,[19]; 63 g ai/ha,30
same,phytotoxicity rating CASOB,[19]; 250 g ai/ha,70
same,phytotoxicity rating ABUTH,[20]; 63 g ai/ha,100
same,phytotoxicity rating ABUTH,[20]; 250 g ai/ha,100
same,phytotoxicity rating CORN (crop damage),[21]; 63 g ai/ha,15
same,phytotoxicity rating CORN (crop damage),[21]; 250 g ai/ha,25
same,phytotoxicity rating RICE (crop damage),[22]; 63 g ai/ha,30
same,phytotoxicity rating RICE (crop damage),[22]; 250 g ai/ha,40
